How the values were obtained:
PKR(G332S) = PKR(G332S) (Homo sapiens, UniProt P30613, G332S); test: Luminescence Biochemical Assay (Kinase Glo Plus), PKR G332S mutant; details: with FBP; for activation at 1.54 µM: 1.54 μM compound, read-out: AC50 LUM KGP FBP % Fold@1.54 μM mean; for AC50: read-out: AC50 LUM KGP FBP AC50 μM gmean (column A); for Emax: read-out: AC50 LUM KGP FBP MAX % FOLD mean
Procedure: In some embodiments, a PKR Activating Compound can have: (1) an AC50 value of less than 0.1 μM (e.g., compounds with AC50 values of “+++” in Table 13), 0.1-1.0 μM (e.g., compounds with AC50 values of “++” in Table 13), or 1.01-40 μM (e.g., compounds with AC50 values of “+” in Table 13); (2) a MAX % Fold of 75%-250%, 250-500%, or 75%-500%; and/or (3) a % Fold@1.54 μM of 75%-250%, 250-500%, or 75%-500%. In some embodiments, a PKR Activating Compound has (1) an AC50 value of less than 1.0 μM; (2) a MAX % Fold of 75%-500%; and/or (3) a % Fold@1.54 μM of 75%-500%.
The phosphorylation of Adenosine-5′-diphosphate (ADP) by various mutants of PKR was determined by the Kinase Glo Plus Assay (Promega) in the presence or absence of FBP [D-Fructose-1,6-diphosphate; BOC Sciences, CAS: 81028-91-3] as follows. Unless otherwise indicated, all reagents were purchased from Sigma-Aldrich. All reagents were prepared in buffer containing 50 mM Tris-HCl, 100 mM KCl, 5 mM MgCl2, and 0.01% Triton X100, 0.03% BSA, and 1 mM DTT. Enzyme and PEP [Phospho(enol) pyruvic acid] were added at 2× to all wells of an assay-ready plate containing serial dilutions of test compounds or DMSO vehicle. Final enzyme concentrations for PKR(wt), PKR(R510Q), and PKR(G332S) were 0.8 nM, 0.8 nM, and 10 nM respectively. Final PEP concentration was 100 μM. The Enzyme/PEP mixture was incubated with compounds for 30 minutes at RT before the assay was initiated with the addition of 2×ADP [Adenosine-5′-diphosphate] and KinaseGloPlus. Final concentration of ADP was 100 μM. […] For assays containing FBP, that reagent is added at 30 μM upon reaction initiation. Reactions were allowed to progress for 45 minutes at RT until luminescence was recorded by the BMG PHERAstar FS Multilabel Reader. All compounds were tested in triplicate at concentrations ranging from 42.5 μM to 2.2 nM in 0.83% DMSO.
Luminescence values were converted to % Fold increase by normalizing to the average of the DMSO control and multiplying by 100. Max, min, slope and AC50 were determined by the standard four parameter fit algorithm of ActivityBase XE Runner. Compounds were evaluated with three parameters—AC50, MAX % Fold, and % Fold@1.54 μM (FIG. 1). The AC50 value for a compound is the concentration (μM) corresponding to the midway between the maximum and minimum values of the four parameter logistic curve fit (i.e., at which the % fold increase along the four parameter logistic curve fit is halfway between MAX % Fold and MIN % Fold (% Fold Midpoint)), MAX % Fold is the highest fold increase observed at any concentration of compound, and % Fold@1.54 μM is the fold increase at a compound concentration of 1.54 μM. The parameter % Fold@1.54 μM was selected to capture elements of both the AC50 and MAX % Fold and to provide a ranking based on both potency and effect. The compound concentration of 1.54 μM was chosen as one that can optimally differentiate the set of compounds based on the range of activities observed.
As set forth in Table 13 below, AC50 values (columns A, D, G) are defined as follows: ≤0.1 μM (+++); >0.1 μM and ≤1.0 μM (++); >1.0 μM and ≤40 μM (+); >40 μM (0). Max % FOLD values (columns B, E, H) are defined as follows: ≤75% (+); >75% and ≤250% (++); >250% and ≤500% (+++). % Fold@1.54 μM values (columns C, F, J) are defined as follows: ≤75% (+); >75% and ≤250% (++); >250% and ≤50000 (+++).

PKR(R510Q) = PKR(R510Q) (Homo sapiens, UniProt P30613, R510Q); test: Luminescence Biochemical Assay (Kinase Glo Plus), PKR R510Q mutant; details: without FBP; for activation at 1.54 µM: 1.54 μM compound, read-out: AC50 LUM KGP woFBP % Fold@1.54 μM mean; for AC50: read-out: AC50 LUM KGP woFBP AC50 μM gmean; for Emax: read-out: AC50 LUM KGP woFBP MAX % FOLD mean
PKR(R510Q), sequence (P30613 whole entry R510Q): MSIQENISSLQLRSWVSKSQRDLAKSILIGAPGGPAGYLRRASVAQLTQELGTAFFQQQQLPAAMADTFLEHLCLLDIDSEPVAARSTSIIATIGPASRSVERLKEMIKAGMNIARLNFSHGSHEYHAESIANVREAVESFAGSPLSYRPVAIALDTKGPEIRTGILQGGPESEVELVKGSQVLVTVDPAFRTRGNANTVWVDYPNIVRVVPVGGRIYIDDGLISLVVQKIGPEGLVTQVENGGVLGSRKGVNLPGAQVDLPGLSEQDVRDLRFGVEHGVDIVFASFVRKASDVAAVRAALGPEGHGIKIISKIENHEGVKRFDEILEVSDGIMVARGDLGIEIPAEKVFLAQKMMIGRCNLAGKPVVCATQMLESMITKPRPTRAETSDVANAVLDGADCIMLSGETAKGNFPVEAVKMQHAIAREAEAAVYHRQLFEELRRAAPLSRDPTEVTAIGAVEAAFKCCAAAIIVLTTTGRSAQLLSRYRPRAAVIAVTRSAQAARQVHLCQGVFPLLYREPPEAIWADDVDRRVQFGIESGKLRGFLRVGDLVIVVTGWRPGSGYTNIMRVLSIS

PKR(G332S), sequence (P30613 whole entry G332S): as the sequence (P30613 whole entry R510Q) above, with G332S, Q510R counted along it

Compound	activation at 1.54 µM (PKR(G332S))	AC50 (PKR(G332S))	Emax (PKR(G332S))	activation at 1.54 µM (PKR(R510Q))	AC50 (PKR(R510Q))	Emax (PKR(R510Q))
COc1ccc(CNC(=O)N2CC3=C(C2)CN(S(=O)(=O)c2ccc(F)cc2)C3)cc1 [Example 20-3]	75 to 250%	≤ 0.1 µM	75 to 250%	250 to 50000%	0.1 to 1 µM	250 to 500%
Cc1nc(S(=O)(=O)N2CC3=C(CN(C(=O)[C@H](C)c4ccccc4)C3)C2)cn1C [Example 19-3, (2R)-1-{5-[(1,2-dimethyl-1H-imidazol-4-yl)sulfonyl]-1H,2H,3H,4H,5H,6H-pyrrolo[3,4-c]pyrrol-2-yl}-2-phenylpropan-1-one]	75 to 250%	0.1 to 1 µM	75 to 250%	75 to 250%	1 to 40 µM	75 to 250%
O=C(NCc1ccc(F)cc1)N1CC2=C(C1)CN(S(=O)(=O)c1cccc3cnccc13)C2 [Example 20-41, N-[(4-fluorophenyl)methyl]-5-(isoquinoline-5-sulfonyl)-1H,2H,3H,4H,5H,6H-pyrrolo[3,4-c]pyrrole-2-carboxamide]	75 to 250%	1 to 40 µM	75 to 250%	75 to 250%	1 to 40 µM	75 to 250%
COc1ccccc1CNC(=O)N1CC2=C(C1)CN(S(=O)(=O)c1ccc3nsnc3c1)C2 [Example 20-27, 5-(2,1,3-Benzothiadiazole-5-sulfonyl)-N-[(2-methoxyphenyl)methyl]-1H,2H,3H,4H,5H,6H-pyrrolo[3,4-c]pyrrole-2-carboxamide]	75 to 250%	1 to 40 µM	75 to 250%	75 to 250%	1 to 40 µM	250 to 500%
COc1cccc(CNC(=O)N2CC3=C(C2)CN(S(=O)(=O)c2ccc(F)cc2)C3)c1 [Example 20-4, 5-(4-Fluorobenzenesulfonyl)-N-[(3-methoxyphenyl)methyl]-1H,2H,3H,4H,5H,6H-pyrrolo[3,4-c]pyrrole-2-carboxamide]	75 to 250%	0.1 to 1 µM	75 to 250%	75 to 250%	0.1 to 1 µM	75 to 250%
COc1cccc(CNC(=O)N2CC3=C(C2)CN(S(=O)(=O)c2cccc4cnccc24)C3)c1 [Example 20-12, 5-(Isoquinoline-5-sulfonyl)-N-[(3-methoxyphenyl)methyl]-1H,2H,3H,4H,5H,6H-pyrrolo[3,4-c]pyrrole-2-carboxamide]	75 to 250%	1 to 40 µM	75 to 250%	75 to 250%	1 to 40 µM	75 to 250%
COc1ccc(CNC(=O)N2CC3=C(C2)CN(S(=O)(=O)c2cccc4cnccc24)C3)cc1 [Example 20-11, 5-(Isoquinoline-5-sulfonyl)-N-[(4-methoxyphenyl)methyl]-1H,2H,3H,4H,5H,6H-pyrrolo[3,4-c]pyrrole-2-carboxamide]	75 to 250%	1 to 40 µM	75 to 250%	75 to 250%	≤ 0.1 µM	75 to 250%
COc1ccccc1CNC(=O)N1CC2=C(C1)CN(S(=O)(=O)c1cccc3nonc13)C2 [Example 20-19, 5-(2,1,3-Benzoxadiazole-4-sulfonyl)-N-[(2-methoxyphenyl)methyl]-1H,2H,3H,4H,5H,6H-pyrrolo[3,4-c]pyrrole-2-carboxamide]	75 to 250%	1 to 40 µM	75 to 250%	75 to 250%	0.1 to 1 µM	250 to 500%

— patent US12122778B2, “Activating pyruvate kinase R” (Novo Nordisk Health Care AG, priority 2018, dated 2024)
